Article PMC9177418, “Global analysis of biosynthetic gene clusters reveals conserved and unique natural products in entomopathogenic nematode-symbiotic bacteria” (Nature Chemistry, 2022)

Columns and labels:
Type in all cases: biochemical
[1] = molecular target: T1, yeast 20S proteasome β5 subunit (chymotrypsin-like) (Saccharomyces cerevisiae, UniProt P30656); experiment: X-ray crystal structure at […] Å; fluorogenic Suc-Leu-Leu-Val-Tyr-AMC inhibition assay with purified yCP
T1 construct: gene PRE2; purified yeast 20S proteasome core particle (yCP); with other subunits of the yeast 20S proteasome core particle (α1–7β1–7β1–7α1–7)
T1 sequence (P30656 76-287): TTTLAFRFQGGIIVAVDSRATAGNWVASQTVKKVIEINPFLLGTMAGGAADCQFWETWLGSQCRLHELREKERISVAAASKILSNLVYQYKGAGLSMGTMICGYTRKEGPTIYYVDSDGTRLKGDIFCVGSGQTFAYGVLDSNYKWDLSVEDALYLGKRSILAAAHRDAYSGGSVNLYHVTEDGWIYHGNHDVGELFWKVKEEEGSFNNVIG

[2] = molecular target: T2, yeast 20S proteasome β1 subunit (caspase-like) (Saccharomyces cerevisiae, UniProt P38624); experiment: X-ray crystal structure ([…] soak; ligand map diffuse at β[…]); fluorogenic inhibition assay with purified yCP
T2 construct: gene PRE3; purified yeast 20S proteasome core particle (yCP); with other subunits of the yeast 20S proteasome core particle (α1–7β1–7β1–7α1–7)
T2 sequence (P38624 20-215): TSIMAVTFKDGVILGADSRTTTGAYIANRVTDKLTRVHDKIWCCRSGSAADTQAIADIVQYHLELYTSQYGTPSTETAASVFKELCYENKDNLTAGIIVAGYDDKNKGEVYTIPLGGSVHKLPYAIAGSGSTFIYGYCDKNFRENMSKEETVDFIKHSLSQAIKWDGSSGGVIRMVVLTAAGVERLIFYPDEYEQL

[3] = molecular target: T3, yeast 20S proteasome β2 subunit (trypsin-like) (Saccharomyces cerevisiae, UniProt P25043); experiment: as above
T3 construct: gene PUP1; purified yeast 20S proteasome core particle (yCP); with other subunits of the yeast 20S proteasome core particle (α1–7β1–7β1–7α1–7)
T3 sequence (P25043 30-261): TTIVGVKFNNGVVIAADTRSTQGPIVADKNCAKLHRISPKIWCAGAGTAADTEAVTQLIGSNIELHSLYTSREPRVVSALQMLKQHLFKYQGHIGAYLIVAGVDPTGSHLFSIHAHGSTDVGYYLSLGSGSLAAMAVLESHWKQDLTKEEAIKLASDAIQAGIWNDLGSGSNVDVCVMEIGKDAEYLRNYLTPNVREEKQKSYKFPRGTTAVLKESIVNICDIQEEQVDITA

`CC(C)[C@@H]1C(=O)O[C@H]1C(=O)O` [compound 1, 3-isopropyl-4-oxo-2-oxetanecarboxylic acid] gave an IC50 [1] of 6.2 µM, an IC50 [2] of 625 µM and an IC50 [3] of 60 µM.
